According to patent publication US20080021002A1, “VITAMIN D COMPOUNDS USED TO STABILIZE KIDNEY TRANSPLANTS” (priority 2000, published 2008):

Assays:
[1] = test system: kidney or kidney-pancreas transplant recipients; assay: Retrospective analysis of renal function (serial serum creatinine) in calcitriol-treated transplant patients; assay type: in vivo, human
Excerpt: Methodology-retrospective analysis: The University of Wisconsin transplant database was screened to identify any kidney and/or kidney-pancreas transplant recipient who received 1,25-dihydroxyvitamin D3 (calcitriol)peri-post-transplant. Clinical and demographic variables were abstracted from the database. Those patients with adequate follow-up data were included in the analysis (≧1year follow-up data following the initiation of calcitriol). Demographic variables included race, age, and nay history of parathyroidectomy as these patients would likely be receiving calcitriol at time of transplantation. The effect of calcitriol treatment on renal function was analyzed using general linear mixed modeling of the change in slope of renal function prior to and following the start of calcitriol therapy. […] Adverse events and hypercalcemia were noted by identifiers in the database and by serum calcium levels as recorded in the database. Hypercalcemia was defined as a serum calcium >10.5 mg/dl. Data assessment—Demographics: Calcitriol-treatment patients were divided into: Group 1: patients who initiated calcitriol therapy<one year following transplantation, Group 2: patients who remained on or initiated calcitriol therapy within two weeks of transplantation, Data assessment—outcomes for Group 1 patients: Renal function was determined by assessing serial serum creatinine values. This serum measure is a standard and accepted measure of renal function. The start of calcitriol therapy was defined as day 0. Time prior to initiation of calcitriol therapy was designated by a negative value. Mean serum creatinine levels appeared to increase in Group 1 patients (indicative of declining renal function) until the time of calcitriol therapy was initiated (Table 3).

Smad 2 mRNA = assay: Semi-quantitative RT-PCR of renal grafts, Smad 2 mRNA; assay type: in vivo, rat; details: vs controls
Experimental: Semi-quantitative Reverse transcription polymerace chain reaction (RT-PCR): Following graft harvest a […] containing both cortex and medulla was snap frozen in liquid nitrogen. Semi-quantitative RT-PCR was performed as described. Little et al. Transplant Int. 12:393-401, 1999. Briefly, samples were homogenized then total RNA extracted with RNAzol B (Tel Test, Inc., Friendswood, Tex.) and reversed transcribed to cDNA according to manufacturer=s instructions (Superscript, Gibco BRL). PCR was performed over the linear range of amplification for both the gene of interest, e.g. TGFβ-1, and the ribosomal protein S26 as a control housekeeping gene. PCR conditions were chosen such that both products were amplified with similar efficiency. The following cycle parameters were employed: denaturing, 94° C. for 60 seconds; annealing, 61° C. for 60 seconds; and extension, 72° C. for 60 seconds. The amount of product was quantified using a phosphoimager (Storm 80) following gel electrophoresis and Vista green detection.

Smad 2 protein = assay: Western blot of renal graft lysates, Smad 2 protein; assay type: in vivo, rat; details: vs allogeneic untreated controls
Excerpt: (§1) Renal lysates were subjected to SDS-PAGE and transferred to nitrocellulose membranes. The membranes were probed with specific anti-Smad antibodies and appropriated HRP-conjugated secondary antibodies. Signal was detected with chemilumensnce. Following exposure, x-ray films were scanned and the amount of expression compared to that of tubulin as an internal control using Scion Image software. FIG. 4 (A) describes R-Smad expression. FIG. 4 (B) described I-Smad expression.
(§2) Western Blot Analysis: A portion of the snap frozen graft containing both cortex and medulla was ground with a mortar and pestle. For each 100 mg of tissue, the sample was resuspened in 400 ul of lysis buffer (10 mM Tris base, 150 mM NaCl, pH 8.0) containing protease inhibitors (P2714 1:1000. Sigma Chemical Co., St. Louis, Mo.) and homogenized (PowerGen 125, 1 minute). Triton X100 was then added to 1% and the sample place on ice, for 30 minutes. The solubilized sample was then spun at 4° C. for 15 minutes at 15,000×G. The supernatant was collected and stored at −80° C. Sample protein concentrations were determined using the Micro BCA assay (Pierce Chemical Co., Rockford, Ill.) according to manufacturer=s instructions, except that the assay was performed in half area plates combining 35 μl sample with 70 µl of reagent. […]

Smad 7 protein = assay: Western blot of renal graft lysates, Smad 7 protein; assay type: in vivo, rat; details: allogeneic grafts vs untreated allogeneic grafts (FIG. 4B)
Excerpt: as §1, §2

## C=C1/C(=C\C=C2/CCC[C@]3(C)[C@@H]([C@H](C)CCCC(C)(C)O)CC[C@@H]23)C[C@@H](O)C[C@@H]1O [calcitriol, 1,25-dihydroxyvitamin D3]
[1]; Group 1 (26 patients)
  Graft failures (loss of the transplant): six
[1]; Group 1 patients
  Serum creatinine levels following initiation of therapy: stabilized
[1]; Group 1 patients, day 100 after start of calcitriol therapy
  Mean serum creatinine: 2.54 mg/dL
[1]; Group 1 patients, day 200 after start of calcitriol therapy
  Mean serum creatinine: 2.44 mg/dL
[1]; Group 1 patients, day 300 after start of calcitriol therapy
  Mean serum creatinine: 2.50 mg/dL
[1]; Group 1 patients, day 400 after start of calcitriol therapy
  Mean serum creatinine: 2.27 mg/dL
[1]; Group 1 patients, day 500 after start of calcitriol therapy
  Mean serum creatinine: 2.37 mg/dL
[1]; Group 1 patients, repeated measures analysis of slopes
  Creatinine trend (slope) after 300 days of therapy: creatinine was decreasing evidenced by a negative slope
[1]; Group 1 patients, treatment day +100, negative = decreasing slope, improved renal function
  Difference (change in slope of serum creatinine over time): −0.0050
[1]; Group 1 patients, treatment day +200
  Difference (change in slope of serum creatinine over time): −0.0046
[1]; Group 1 patients, treatment day +300
  Difference (change in slope of serum creatinine over time): −0.0080
[1]; Group 1 patients, treatment day +400
  Difference (change in slope of serum creatinine over time): −0.0085
[1]; Group 1 patients, treatment day +500
  Difference (change in slope of serum creatinine over time): −0.0078
[1]; Group 2 (22 patients)
  Graft failures: two
[1]; Group 2 patients
  Analysis of interval slopes of serum creatinine: no interview slopes significantly different from 0
[1]; Group 2 patients (table title prints Group 1), day 100 of calcitriol
  Mean serum creatinine: 1.61 mg/dL
[1]; Group 2 patients (table title prints Group 1), day 200 of calcitriol
  Mean serum creatinine: 1.79 mg/dL
[1]; Group 2 patients (table title prints Group 1), day 300 of calcitriol
  Mean serum creatinine: 1.70 mg/dL
[1]; Group 2 patients (table title prints Group 1), day 400 of calcitriol
  Mean serum creatinine: 1.62 mg/dL
[1]; Group 2 patients (table title prints Group 1), day 500 of calcitriol
  Mean serum creatinine: 1.82 mg/dL
[1]; Group 2 patients, first 600 days following initiation of calcitriol
  Mean serum creatinine levels over time: remained stable
Smad 2 mRNA
  Smad 2 mRNA levels: no significant change
Smad 2 protein; 500 ng/rat/day (data not shown)
  Decrease in Smad 2 protein levels: 208 fold
Smad 2 protein; 1000 ng/rat/day, p=0.04
  Decrease in Smad 2 protein levels: 516 fold
Smad 7 protein
  Increase in Smad 7 protein levels: 4,3 fold
